“Also recorded” adds a separate entry of the source.
Columns and labels:
A1 = biological target: A1; set-up: method as in PMID 21810444, PMID 9933143, PMID 17236762; conditions: in vitro binding; rat or human; cited from earlier work
[1] = tested on: unilateral 6-OHDA-lesioned rats; test: Rearing counts in actometers, monotherapy (without L-Dopa); assay type: in vivo, rat
Protocol: (§1) To protect norepinephrinergic neurons, animals were administered imipramine HCl (Sigma) 15 minutes before surgery. They were subsequently anesthetized with ketamine (Ceva, 75 mg/kg) and xylazine (Bayer, 10 mg/kg) and placed in stereotaxic frame (David Kopf Instrument). 6-OHDA was injected into the right ascending medial forebrain bundle at the following coordinates (in mm) relative to bregma and surface of the dura, AP = −3.5, ML = −1.5, DV = −8.7. Each rat received one injection of 6-OHDA (4 µg/µl) over a period of 5 minutes (0.5 µl/min) for a total of 10 µg per rat. Animals were monitored for 3 weeks to ensure full recovery and habituation to the environment and experimenters.
(§2) On day 21 post surgery, all rats were challenged with a small dose of subcutaneously administered apomorphine (Sigma, 0.05 mg/kg). Rats showing more than 90 contralateral rotations (360°) over a 45-minute recording period were included in the study. […] For each experiment, rats were allocated to the different experimental groups in order to get the same mean level of basal activity measured at the apomorphine challenge amongst the different experimental groups.
(§3) Drug-naïve separate rats were tested individually in clear acrylic chambers (LE8811 IR, Panlab). Locomotion was detected and measured by 16 infrared light-beam sensors located on each side of the enclosure at a height of 3 cm. Sensors were spaced such that the light beams formed a matrix of 15×15 squares over the surface. Activity counts were recorded on a computer and Acti-Track software (Actitrack, Panlab) was used to convert raw data into “distance traveled” and “rearing counts” for analysis as relevant dependent variables.
(§4) Six different combinations of A2A/NR2B antagonists were tested without L-Dopa. For each combination, there were four different procedures: vehicle only; A2A antagonist followed by vehicle; vehicle followed by the NR2B antagonist and A2A antagonist followed by the NR2B antagonist. The drugs, doses and combinations are described in Table 3. After drug administration, rats were placed in actometers (open-field) for monitoring the general level of motor activity (distance traveled and rearing counts).
(§5) Before undertaking the study, each A2A and NR2B antagonist was tested individually. The doses were selected on the basis of preliminary dose-response curves performed separately for each drug and submaximal dose (i.e. response observed is not at its maximal level) of each drug was selected for the combination studies. The two drugs were administered separately via an intraperitoneal (ip) injection with a 2-minute interval between the two drugs. Five minutes after the second injection, animals were placed in the testing cage for behavioural recording. Due to formulation and exposure issues, Tozadenant and Radiprodil had to be administered orally and therefore recording was started 60 minutes post dosing at this corresponds to maximum plasma concentrations. Eight drug-naïve animals were used for each of the four procedures; 32 in total for each combination. All behavioral experiments were conducted between 8.00 AM and 2.00 PM at the latest. Preliminary pharmacokinetic assays investigated the plasma and brain disposition of selected drugs administered alone or in combination (ie. Tozadenant/Radiprodil, and Sch-58261/Co-101244; 3 animals per group). Tozadenant and Radiprodil were measured in samples obtained 60 minutes after single oral administration at 30 mg/kg. Sch-58261 and Co-101244 were measured in samples collected 90 min after single intraperitoneal administration at 3 mg/kg.
(§6) The effects of A2A and NR2B antagonists on the level of motor activity (i.e. distance traveled and rearing counts) were assessed with three-way mixed ANOVA, combining the A2A receptor antagonist (2 levels, vehicle and the A2A drug) and the NR2B antagonist (2 levels, vehicle and the NR2B drug) as between-group factors with the time as within-subjects factor (6 or 9 levels). […]

P-gp = tested on: P-gp; set-up: method as in PMID 18552277; conditions: human subjects; cited from earlier work
CYP3A = tested on: CYP3A; set-up: method as in PMID 18552277; conditions: human subjects; cited from earlier work
[2] = tested on: unilateral 6-OHDA-lesioned rats; test: Distance traveled in actometers, monotherapy (without L-Dopa); assay type: in vivo, rat
Protocol: as §1, §2, §3, §4, §5, §6

PD patients = conditions: cited from earlier work
A2B = biological target: A2B; set-up: method as in PMID 21810444, PMID 9933143, PMID 17236762; conditions: in vitro binding; rat or human; cited from earlier work
A3 = biological target: A3; set-up: method as in PMID 21810444, PMID 9933143, PMID 17236762; conditions: in vitro binding; rat or human; cited from earlier work
A2A = biological target: A2A; set-up: method as in PMID 21810444, PMID 9933143, PMID 17236762; conditions: in vitro binding; rat or human; cited from earlier work
P-glycoprotein (Pgp) = tested on: P-glycoprotein (Pgp); set-up: method as in earlier work; conditions: ref 62 (Preladenant), 49 (Merck 22); cited from earlier work
[3] = tested on: unilateral 6-OHDA-lesioned rats; test: L-Dopa-induced contralateral rotations in rotometers, add-on therapy; assay type: in vivo, rat; conditions: add-on to L-Dopa 25 mg/kg ip, Preladenant 0.03 mg/kg ip
Protocol: as §1, §2
The rats tested one week earlier for general activity (actometers) were once again placed in clear acrylic individual chambers (50×45 cm) with the same treatment (drug and dose) than that previously received plus L-Dopa. Eight chambers were placed on a level, clear glass bottom, held by a robust frame, and were subdivided into four individual test cages of 25×22 cm. A removable acrylic plate served as a lid.
Rotational behaviour was recorded using a home-made computerized system. Rats were fixed in a harness and linked to mechanical sensors connected directly to a computer. Each 360° clock-wise or counter clock-wise turn was automatically recorded for up to 120 minutes at the maximum. Throughout the experiments, rats were allocated to individual test cages.
Four different combinations were administered as add-on treatment to a low active dose of L-Dopa (25 mg/kg, ip) without any dopa decarboxylase inhibitor to avoid any additional pharmacokinetic interaction. The doses of the compounds were selected on the basis of preliminary dose-response curves performed separately for each drug. To avoid ceiling effect with L-Dopa, only submaximal doses of each drug were selected for testing (as it was done previously for monotherapy). Eight L-Dopa naïve animals were tested for each of the four pharmacological condition: vehicle and L-Dopa (25 mg/kg); A2A antagonist followed by vehicle and L-Dopa; vehicle followed by NR2B antagonist and L-Dopa; A2A antagonist followed by NR2B and L-Dopa. Due to the dominance of the L-Dopa-effect on the lesioned striatum, the unilateral 6-OHDA-lesioned rats rotated after the drugs administration and behavioral activity was recorded in rotometers (i.e. level of contralateral rotations).
All drugs were administered i.p. 25 minutes before behavioural recording, except for the Tozadenant and Radiprodil combination which was administered orally 60 minutes before behavioural recording. As Radiprodil was administered orally, L-Dopa was given 45 minutes after the Radiprodil injection whereas for the other combinations L-Dopa was given 15 minutes after the NR2B drug. The drugs, the doses and the combinations given in co-administration to L-Dopa are described in Table 4 .
The impact of treatment with A2A or NR2B receptor antagonists, given alone or in combination, on the effect of L-Dopa on contralateral rotations was also analysed with a three-way mixed ANOVA. The ANOVA included the A2A and the NR2B receptor antagonists (both, 2 levels, vehicle and the drug) as between-group factors combined with time (12 levels) as within-subjects factor. […] The ability of the combination to increase and prolong the activity of L-Dopa was also explored. Consequently, drug effects were analyzed for every 10-min time interval. […]

cytochrome P-450 (CYP) = tested on: cytochrome P-450 (CYP); set-up: method as in earlier work; conditions: ref 62 (Preladenant), 49 (Merck 22); cited from earlier work
[4] = Istradefylline 0.3 mg/kg ip, Co-101244 1 mg/kg ip
[5] = Preladenant 0.1 mg/kg ip, Merck 22 0.3 mg/kg ip
[6] = Preladenant 0.1 mg/kg ip, Radiprodil 1 mg/kg ip

CCn1c(=O)c2c(nc(/C=C/c3ccc(OC)c(OC)c3)n2C)n(CC)c1=O [Istradefylline]
Ki (A1): 0.841 µM
Rearing counts, drugs alone vs vehicle, p (Newman-Keuls) [1, 4]: Istradefylline, p<0.01
Rearing counts, drugs main effect, p (three-way mixed ANOVA) [1, 4]: p<0.001
Rearing counts, drugs × time effect, p (three-way mixed ANOVA) [1, 4]: p<0.01
Inhibition of P-gp (P-gp): modest inhibition
Effect on CYP3A-mediated drug metabolism (CYP3A): does not impair
Distance traveled, drugs alone vs vehicle, p (Newman-Keuls) [2, 4]: not all drugs when administered alone improved distance traveled; also recorded: Not significant
Distance traveled, drugs main effect, p (three-way mixed ANOVA) [2, 4]: p<0.001
Distance traveled, drugs × time effect, p (three-way mixed ANOVA) [2, 4]: Not significant
Clinical efficacy when combined with L-Dopa (PD patients; PD patients): demonstrated significant efficacy
Clinical benefit as monotherapy (without L-Dopa) (PD patients; de-novo PD patients): did not produce statistically significant benefits
Ki (A2B): > 10 µM
Ki (A3): 4.47 µM
Ki (A2A): 0.012 µM

COCCOc1ccc(N2CCN(CCn3ncc4c3nc(N)n3nc(-c5ccco5)nc43)CC2)cc1 [Preladenant]
Ki (A1): > 1 µM
Rearing counts, drugs alone vs vehicle, p (Newman-Keuls) [1, 5]: Preladenant p<0.001
Rearing counts, drugs main effect, p (three-way mixed ANOVA) [1, 5]: p<0.001
Rearing counts, drugs × time effect, p (three-way mixed ANOVA) [1, 5]: p<0.001
Rearing counts, drugs alone vs vehicle, p (Newman-Keuls) [1, 6]: Preladenant p<0.001
Rearing counts, drugs main effect, p (three-way mixed ANOVA) [1, 6]: p<0.001
Rearing counts, drugs × time effect, p (three-way mixed ANOVA) [1, 6]: Not significant
In-vitro drug interactions with P-glycoprotein (Pgp) (P-glycoprotein (Pgp)): devoid of in-vitro risks of drug interactions
Contralateral rotations, drugs alone vs vehicle, p (planned contrasts on each 10-min interval) ([3]; Merck 22 1 mg/kg ip): Not significant
Contralateral rotations, drugs main effect, p (three-way mixed ANOVA) ([3]; Merck 22 1 mg/kg ip): p<0.05
Contralateral rotations, drugs × time effect, p (three-way mixed ANOVA) ([3]; Merck 22 1 mg/kg ip): p<0.001
Contralateral rotations, drugs alone vs vehicle, p (planned contrasts on each 10-min interval) ([3]; Radiprodil 0.3 mg/kg ip): Not significant
Contralateral rotations, drugs main effect, p (three-way mixed ANOVA) ([3]; Radiprodil 0.3 mg/kg ip): p<0.01
Contralateral rotations, drugs × time effect, p (three-way mixed ANOVA) ([3]; Radiprodil 0.3 mg/kg ip): p<0.001
Distance traveled, drugs alone vs vehicle, p (Newman-Keuls) [2, 5]: Preladenant: p<0.001
Distance traveled, drugs main effect, p (three-way mixed ANOVA) [2, 5]: p<0.001
Distance traveled, drugs × time effect, p (three-way mixed ANOVA) [2, 5]: Not significant
Distance traveled, drugs alone vs vehicle, p (Newman-Keuls) [2, 6]: Both p<0.05
Distance traveled, drugs main effect, p (three-way mixed ANOVA) [2, 6]: p<0.001
Distance traveled, drugs × time effect, p (three-way mixed ANOVA) [2, 6]: Not significant
Distance traveled, drug alone in comparison to vehicle-treated controls ([2]; drug administered alone): significant increase
Ki (A2B): > 1.7 µM
Ki (A3): > 1 µM
In-vitro drug interactions with cytochrome P-450 (CYP) (cytochrome P-450 (CYP)): devoid of in-vitro risks of drug interactions
